Reference: patent US10071967B2, “N-cycloalkyl-N-{[2-(1-substitutedcycloalkyl)phenyl]methylene}-(thio)carboxamide derivatives” (BAYER CROPSCIENCE AKTIENGESELLSCHAFT, priority 2013, dated 2018)

Assay: log P by HPLC on a reversed-phase column (C 18), EEC Directive 79/831 Annex V.A8
Assay type: physicochemical
Settings: HPLC reversed-phase C 18, 40° C., 0.1% aqueous formic acid and acetonitrile, gradient 10% to 90% acetonitrile
Experimental: In table 1, the log P values were determined in accordance with EEC Directive 79/831 Annex V.A8 by HPLC (High Performance Liquid Chromatography) on a reversed-phase column (C 18), using the method described below: Temperature: 40° C.; Mobile phases: 0.1% aqueous formic acid and acetonitrile; linear gradient from 10% acetonitrile to 90% acetonitrile. Calibration was carried out using unbranched alkan-2-ones (comprising 3 to 16 carbon atoms) with known log P values (determination of the log P values by the retention times using linear interpolation between two successive alkanones). lambda-max-values were determined using UV-spectra from 200 nm to 400 nm and the peak values of the chromatographic signals.

| logP | Compound |
| --- | --- |
| 3.94 | Cn1cc(C(=S)N(Cc2cc(F)ccc2C2(C(F)(F)F)CC2)C2CC2)c(C(F)F)n1 [Example 1.152] |
| 3.68 | Cn1cc(C(=O)N(Cc2cc(F)ccc2C2(C)CC2(Cl)Cl)C2CC2)c(C(F)F)n1 (stereo not shown) [Example 1.153] |
| 3.02 | COCC1(c2ccc(C)cc2CN(C(=O)c2c(C)nn(C)c2F)C2CC2)CC1 [Example 1.156] |
| 4.35 | Cc1nn(C)c(F)c1C(=O)N(Cc1cc(Cl)c(Cl)cc1C1(C)CC1)C1CC1 [Example 1.162] |
| 3.19 | COCC1(c2ccc(C)cc2CN(C(=O)c2c(C)nn(C)c2Cl)C2CC2)CC1 [Example 1.158] |

Same assay, conditions: HPLC, reversed-phase column (C 18), 40° C.; 0.1% aqueous formic acid and acetonitrile, linear gradient 10% to 90% acetonitrile

| logP | Compound |
| --- | --- |
| 5.54 | Cc1ccc(C2(C(C)C)CC2)c(CN(C(=O)c2cc(C)oc2C(F)F)C2CC2)c1 [Example 1.120] |
| 3.51 | Cc1ccc(C2(Cl)CC2)c(CN(C(=O)c2cn(C)nc2C(F)F)C2CC2)c1 [Example 1.105] |
| 3.64 | Cc1nn(C)cc1C(=S)N(Cc1cccc(F)c1C1(C)CC1)C1CC1 [Example 1.005] |
| 5.08 | Cc1cc(C(=O)N(Cc2c(C3(C)CC3)ccc(C)c2F)C2CC2)c(C)o1 [Example 1.055] |
| 5.08 | CCCC1(c2ccc(C)cc2CN(C(=S)c2cn(C)nc2C(F)F)C2CC2)CC1 [Example 1.116] |
| 5.00 | C=Cc1cc(C(=O)N(Cc2cc(C)ccc2C2(C)CC2)C2CC2)c(C)o1 [Example 1.049] |
| 5.05 | Cc1ccc(C2(C3CC3)CC2)c(CN(C(=O)c2cc(C)oc2C)C2CC2)c1 [Example 1.109] |
| 3.23 | COc1ccc(CN(C(=O)c2c(C)nn(C)c2F)C2CC2)c(C2(C)CC2)c1 [Example 1.018] |
| 3.46 | Cn1cc(C(=O)N(Cc2cccc(F)c2C2(C)CC2)C2CC2)c(C(F)F)n1 [Example 1.003] |
| 3.21 | Cc1ccc(C2(C(F)F)CC2)c(CN(C(=O)c2c(C)nn(C)c2F)C2CC2)c1 [Example 1.139] |
| 3.06 | Cc1nn(C)c(F)c1C(=O)N(Cc1ccc2c(c1C1(C)CC1)OCO2)C1CC1 [Example 1.056] |
| 4.92 | Cc1ccc(C2(C)CC2)c(CN(C(=S)c2oc(C)nc2C(F)F)C2CC2)c1 [Example 1.053] |
| 5.14 | Cc1ccc(C2(C)CC2)c(CN(C(=O)c2sccc2I)C2CC2)c1 [Example 1.034] |
| 4.85 | CCC1(c2cc(C)c(F)cc2CN(C(=O)c2nn(C)nc2C(F)F)C2CC2)CC1 [Example 1.079] |
| 4.67 | CCC1(c2cc(C)ccc2CN(C(=S)c2cn(C)nc2C(F)F)C2CC2)CC1 [Example 1.076] |
| 3.21 | C#CC1(c2ccc(C)cc2CN(C(=O)c2c(C)nn(C)c2F)C2CC2)CC1 [Example 1.065] |
| 5.34 | CCC1(c2cc(C)c(F)cc2CN(C(=O)c2cc(C)oc2C)C2CC2)CC1 [Example 1.083] |
| 4.25 | CCC1(c2cc(Cl)ccc2CN(C(=O)c2cn(C)nc2C(F)F)C2CC2)CC1 [Example 1.070] |
| 3.48 | Cn1cc(C(=O)N(Cc2cc(F)ccc2C2(C(F)(F)F)CC2)C2CC2)c(C(F)F)n1 [Example 1.150] |
| 4.18 | CCC1(c2ccc(Cl)cc2CN(C(=O)c2cn(C)nc2C(F)F)C2CC2)CC1 [Example 1.086] |
| 4.39 | Cn1cc(C(F)F)c(C(=O)N(Cc2cc(Br)ccc2C2(C)CC2)C2CC2)n1 [Example 1.025] |

| logP | Compound |
| --- | --- |
| 3.09 | Cn1cc(C(=O)N(Cc2cc(F)ccc2C2(C(F)F)CC2)C2CC2)c(C(F)F)n1 [Example 1.137] |
| 5.31 | CCCC1(c2cc(Cl)ccc2CN(C(=O)c2nn(C)nc2C(F)F)C2CC2)CC1 [Example 1.112] |
| 5.25 | CCc1cc(C(=O)N(Cc2cc(C)ccc2C2(C)CC2)C2CC2)c(C)o1 [Example 1.051] |
| 4.11 | CCC1(c2cc(C)ccc2CN(C(=O)c2c(C)nn(C)c2F)C2CC2)CC1 [Example 1.075] |
| 4.69 | CCC1(c2ccc(C)cc2CN(C(=S)c2cn(C)nc2C(F)F)C2CC2)CC1 [Example 1.099] |
| 4.77 | CCC1(c2ccc(C)cc2CN(C(=O)c2nn(C)nc2C(F)F)C2CC2)CC1 [Example 1.094] |
| 4.39 | Cc1ccc(C2(C)CC2)c(CN(C(=S)c2cn(C)nc2C(F)F)C2CC2)c1 [Example 1.052] |
| 2.84 | CCC1(c2ccc(C)cc2CN(C(=O)c2c(OC(F)F)nn(C)c2Cl)C2CC2)CC1 [Example 1.101] |
| 3.42 | Cc1ccc(C2(Cl)CC2)c(CN(C(=O)c2c(C)nn(C)c2F)C2CC2)c1 [Example 1.106] |
| 3.74 | CCC1(c2cccc(F)c2CN(C(=O)c2cn(C)nc2C(F)F)C2CC2)CC1 [Example 1.102] |
| 4.56 | Cc1ccc(C2(C)CC2)c(CN(C(=O)c2nc(C)oc2C(F)F)C2CC2)c1 [Example 1.044] |
| 3.94 | Cn1cc(C(=O)N(Cc2cc(Br)ccc2C2(C)CC2)C2CC2)c(C(F)F)n1 [Example 1.024] |
| 5.72 | Cc1ccc(C2(C)CC2)c(CN(C(=S)c2sccc2I)C2CC2)c1 [Example 1.054] |
| 4.87 | CCC1(c2cc(Cl)ccc2CN(C(=O)c2nn(C)nc2C(F)F)C2CC2)CC1 [Example 1.073] |
| 4.80 | Cc1ccc(C2(C(C)C)CC2)c(CN(C(=O)c2c(C)nn(C)c2Cl)C2CC2)c1 [Example 1.119] |
| 4.24 | CCC1(c2cc(C)c(F)cc2CN(C(=O)c2cn(C)nc2C(F)F)C2CC2)CC1 [Example 1.081] |
| 4.26 | CCC1(c2cc(C)c(F)cc2CN(C(=O)c2c(C)nn(C)c2F)C2CC2)CC1 [Example 1.082] |
| 5.65 | Cc1ccc(C2(C(C)C)CC2)c(CN(C(=O)c2cc(C)oc2C)C2CC2)c1 [Example 1.118] |
| 2.98 | COc1cc(CN(C(=O)c2cn(C)nc2C(F)F)C2CC2)c(C2(C)CC2)cc1OC [Example 1.020] |
| 3.53 | CCOC1(c2ccc(C)cc2CN(C(=O)c2c(C)nn(C)c2F)C2CC2)CC1 [Example 1.127] |
| 4.24 | Cc1nn(C)c(Cl)c1C(=O)N(Cc1cc(Br)ccc1C1(C)CC1)C1CC1 [Example 1.023] |

| logP | Compound |
| --- | --- |
| 3.37 | Cn1cc(C(=O)N(Cc2cc(Cl)ccc2C2(C(F)F)CC2)C2CC2)c(C(F)F)n1 [Example 1.135] |
| 4.23 | CCC1(c2ccc(Cl)cc2CN(C(=O)c2c(C)nn(C)c2F)C2CC2)CC1 [Example 1.087] |
| 3.02 | CCOC1(c2ccc(C)cc2CN(C(=O)c2cn(C)nc2C)C2CC2)CC1 [Example 1.129] |
| 3.52 | Cn1cc(C(=O)N(Cc2ccc(F)cc2C2(C)CC2)C2CC2)c(C(F)F)n1 [Example 1.013] |
| 5.08 | Cc1nn(C)c(F)c1C(=O)N(Cc1ccc(Cl)cc1C1(CC(C)C)CC1)C1CC1 [Example 1.143] |
| 3.44 | Cn1cc(C(=O)N(Cc2cc(Br)ccc2C2(C(F)F)CC2)C2CC2)c(C(F)F)n1 [Example 1.134] |
| 4.25 | CCC1(c2cc(Cl)ccc2CN(C(=O)c2c(C)nn(C)c2F)C2CC2)CC1 [Example 1.069] |
| 4.92 | Cc1cc(C(=O)N(Cc2cccc(Cl)c2C2(C)CC2)C2CC2)c(C)o1 [Example 1.002] |
| 3.29 | Cc1ccc(C2(C(F)F)CC2)c(CN(C(=O)c2cn(C)nc2C(F)F)C2CC2)c1 [Example 1.138] |
| 3.68 | Cn1cc(C(=O)N(Cc2cc(F)c(F)cc2C2(C)CC2)C2CC2)c(C(F)F)n1 [Example 1.019] |
| 4.14 | CCC1(c2ccc(C)cc2CN(C(=O)c2c(C)nn(C)c2F)C2CC2)CC1 [Example 1.093] |
| 3.71 | CCOC1(c2ccc(C)cc2CN(C(=O)c2c(C)nn(C)c2Cl)C2CC2)CC1 [Example 1.131] |
| 5.35 | CCC1(c2ccc(C)cc2CN(C(=O)c2c(OC(F)F)nn(C)c2C(F)(F)F)C2CC2)CC1 [Example 1.100] |
| 3.96 | Cn1cc(C(=O)N(Cc2ccc(Cl)cc2C2(C)CC2)C2CC2)c(C(F)F)n1 [Example 1.010] |
| 4.18 | Cc1nn(C)c(F)c1C(=S)N(Cc1ccc(F)cc1C1(C)CC1)C1CC1 [Example 1.015] |
| 5.00 | Cn1nc(C(=O)N(Cc2ccc(-c3ccccc3)cc2C2(C)CC2)C2CC2)c(C(F)F)n1 [Example 1.022] |
| 5.14 | CCC1(c2ccc(C)cc2CN(C(=O)c2cc(C)oc2C)C2CC2)CC1 [Example 1.097] |
| 4.04 | Cn1cc(C(=S)N(Cc2cccc(F)c2C2(C)CC2)C2CC2)c(C(F)F)n1 [Example 1.006] |
| 5.22 | Cc1ccc(C2(C)CC2)c(CN(C(=O)c2cc(C3CC3)oc2C)C2CC2)c1 [Example 1.045] |
| 3.60 | CCOC1(c2ccc(C)cc2CN(C(=O)c2cn(C)nc2C(F)F)C2CC2)CC1 [Example 1.128] |
| 4.49 | CCC1(c2cc(C)c(F)cc2CN(C(=O)c2c(C)nn(C)c2Cl)C2CC2)CC1 [Example 1.078] |

Same assay, conditions: Table 2, compounds of formula (I); HPLC C 18, 40° C., 0.1% aqueous formic acid and acetonitrile

| logP | Compound |
| --- | --- |
| 3.51 | Cn1cc(C(=O)N(Cc2cccc3c2C2(CC3)CC2)C2CC2)c(C(F)F)n1 [Ia.01] |
| 4.06 | Cn1cc(C(=O)N(Cc2cccc3c2C2(CCC3)CC2(Cl)Cl)C2CC2)c(C(F)F)n1 (racemic) [Ia.04] |
| 3.73 | Cn1cc(C(=O)N(Cc2cccc3c2C2(CCC3)CC2)C2CC2)c(C(F)F)n1 [Ia.02] |

Same assay, conditions: Table 4, compounds of formula (IV); HPLC C 18, 40° C., 0.1% aqueous formic acid and acetonitrile

| Compound | logP |
| --- | --- |
| 3-fluoro-2-(1-methylcyclopropyl)benzaldehyde [IV.14] | 3.13 |

Same assay, conditions: reversed-phase C18 HPLC column; given in the preparation examples

| chromatographic logP | Compound |
| --- | --- |
| 3.09 | Cn1cc(C(=O)N(Cc2cc(F)ccc2C2(C(F)F)CC2)C2CC2)c(C(F)F)n1 [I.137, N-cyclopropyl-3-(difluoromethyl)-N-{2-[1-(difluoromethyl)cyclopropyl]-5-fluorobenzyl}-1-methyl-1H-pyrazole-4-carboxamide] |
